± gives the expanded uncertainty stated by the source.
How the values were obtained:
[1] = refractive index (Na D-line) (dimensionless); xn = mol fraction of the nth substance listed; conditions: 100 kPa, Liquid, Standard Abbe refractometry, x1 = 0.333
[2] = molar heat capacity at constant pressure; xn = mol fraction of the nth substance listed; conditions: 100 kPa, Liquid, DSC, x1 = 0.333
[3] = xn = mol fraction of the nth substance listed; conditions: x1 = 0.333; for surface tension liquid-gas: Drop volume; for viscosity / electrical conductivity / speed of sound / mass density: 100 kPa, Liquid; for viscosity: Capillary tube (Ostwald / Ubbelohde) method; for electrical conductivity: Frequency=0.002 MHz, Alternating current cell with electrodes; for speed of sound: Frequency=3 MHz, Single path-length method; for mass density: Vibrating tube method

C[N+](C)(C)CCO.[Cl-] [choline chloride] + OCC(O)CO
Conditions | electrical conductivity, [3] [S/m] | mass density, [3] [kg/m3] | molar heat capacity at constant pressure, [2] [J/K/mol] | refractive index, [1] | speed of sound, [3] [m/s] | surface tension liquid-gas, [3] [mN/m] | viscosity, [3] [mPa·s]
278.15 K | 0.026 ± 0.0005 | 1207.05 ± 2.7 | 211.5 ± 8.2 | – | 2049.6 ± 2.1 | 68.01 ± 0.75 | 1511 ± 88
280.65 K | 0.032 ± 0.0006 | 1205.6 ± 2.7 | 212.5 ± 8.2 | – | 2042.8 ± 2.1 | 67.9 ± 0.75 | 1211 ± 66
283.15 K | 0.0406 ± 0.0008 | 1204.2 ± 2.7 | 213.5 ± 8.3 | 1.48809 ± 0.00051 | 2036.2 ± 2.1 | 67.77 ± 0.75 | 982.4 ± 50
285.65 K | 0.0491 ± 0.001 | 1202.8 ± 2.7 | 214.5 ± 8.3 | 1.4875 ± 0.00051 | 2029.9 ± 2.1 | 67.65 ± 0.74 | 801.5 ± 39
288.15 K | 0.0587 ± 0.0012 | 1201.4 ± 2.7 | 215 ± 8.3 | 1.48698 ± 0.00051 | 2024 ± 2.1 | 67.5 ± 0.74 | 658.4 ± 30
290.65 K | 0.0703 ± 0.0014 | 1200 ± 2.7 | 216 ± 8.4 | 1.48632 ± 0.00051 | 2018.2 ± 2.1 | 67.34 ± 0.74 | 543.7 ± 23
293.15 K | 0.0839 ± 0.0017 | 1198.55 ± 2.7 | 217 ± 8.4 | 1.48574 ± 0.00051 | 2012.6 ± 2.1 | 67.2 ± 0.74 | 452.6 ± 18
295.65 K | 0.0992 ± 0.002 | 1197.15 ± 2.7 | 217.5 ± 8.4 | 1.48514 ± 0.00051 | 2006.9 ± 2.1 | 67.1 ± 0.74 | 378.5 ± 15
298.15 K | 0.117 ± 0.002 | 1195.75 ± 2.7 | 218.5 ± 8.5 | 1.48455 ± 0.00051 | 2001.3 ± 2.1 | 66.95 ± 0.74 | 319.7 ± 12
300.65 K | 0.136 ± 0.003 | 1194.3 ± 2.7 | 219 ± 8.5 | 1.48396 ± 0.00051 | 1995.8 ± 2.1 | 66.81 ± 0.74 | 271.4 ± 9.3
303.15 K | 0.158 ± 0.003 | 1192.9 ± 2.7 | 220 ± 8.5 | 1.48337 ± 0.00051 | 1990.2 ± 2.1 | 66.7 ± 0.74 | 232.1 ± 7.6
305.65 K | 0.182 ± 0.004 | 1191.5 ± 2.7 | 221 ± 8.6 | 1.48278 ± 0.00051 | 1984.7 ± 2.1 | 66.57 ± 0.73 | 199 ± 6.2
308.15 K | 0.21 ± 0.004 | 1190.15 ± 2.7 | 221.5 ± 8.6 | 1.48218 ± 0.00051 | 1979.2 ± 2.1 | 66.43 ± 0.73 | 171.6 ± 5.1
310.65 K | 0.24 ± 0.005 | 1188.75 ± 2.7 | 222.5 ± 8.6 | 1.48159 ± 0.00051 | 1973.8 ± 2.1 | 66.31 ± 0.73 | 149 ± 4.2
313.15 K | 0.276 ± 0.006 | 1187.4 ± 2.7 | 223.5 ± 8.7 | 1.48098 ± 0.00051 | 1968.3 ± 2.1 | 66.18 ± 0.73 | 130 ± 3.5
315.65 K | 0.314 ± 0.006 | 1186 ± 2.7 | 224 ± 8.7 | 1.4804 ± 0.00051 | 1962.8 ± 2.1 | 66.05 ± 0.73 | 113.8 ± 2.9
318.15 K | 0.352 ± 0.007 | 1184.65 ± 2.7 | 225 ± 8.7 | 1.4798 ± 0.00051 | 1957.4 ± 2.1 | 65.93 ± 0.73 | 100 ± 2.5
320.65 K | 0.394 ± 0.008 | 1183.25 ± 2.7 | 226 ± 8.8 | 1.47921 ± 0.00051 | 1951.8 ± 2.1 | 65.74 ± 0.73 | 88.43 ± 2.1
323.15 K | 0.439 ± 0.009 | 1181.9 ± 2.7 | 227 ± 8.8 | 1.4786 ± 0.00051 | 1946.3 ± 2.1 | 65.62 ± 0.72 | 78.39 ± 1.8
325.65 K | 0.487 ± 0.01 | 1180.5 ± 2.7 | 228 ± 8.8 | 1.47801 ± 0.00051 | 1940.7 ± 2.1 | 65.48 ± 0.72 | 69.46 ± 1.6
328.15 K | 0.544 ± 0.011 | 1179.1 ± 2.7 | 228.5 ± 8.8 | 1.47741 ± 0.00051 | 1935.2 ± 2.1 | 65.38 ± 0.72 | 62.06 ± 1.4
330.65 K | 0.603 ± 0.012 | 1177.7 ± 2.6 | 229 ± 8.9 | 1.47681 ± 0.00051 | 1929.6 ± 2.1 | 65.23 ± 0.72 | 55.63 ± 1.2
333.15 K | 0.662 ± 0.013 | 1176.35 ± 2.6 | 230 ± 8.9 | 1.47622 ± 0.00051 | 1924.1 ± 2.1 | 65.1 ± 0.72 | 50.05 ± 1.1
335.65 K | 0.729 ± 0.015 | 1174.95 ± 2.6 | 231 ± 8.9 | 1.47564 ± 0.00051 | 1918.5 ± 2.1 | 64.97 ± 0.72 | 45.19 ± 1
338.15 K | 0.801 ± 0.016 | 1173.55 ± 2.6 | 232 ± 9 | 1.47504 ± 0.00051 | 1912.9 ± 2.1 | 64.84 ± 0.72 | 40.94 ± 0.93

Reference: the NIST ThermoML archive (doi:10.1016/j.jct.2018.07.031)
